Experiments:
Type in all cases: functional
[1] = system: Bacillus subtilis; assay: Antibacterial activity against Bacillus subtilis assessed as growth inhibition by microtitration method
[2] = system: Pseudomonas aeruginosa; assay: Antibacterial activity against Pseudomonas aeruginosa assessed as growth inhibition by microtitration method
[3] = system: Staphylococcus epidermidis; assay: Antibacterial activity against Staphylococcus epidermidis assessed as growth inhibition by microtitration method
[4] = system: Staphylococcus aureus; assay: Antibacterial activity against Staphylococcus aureus assessed as growth inhibition by microtitration method
[5] = system: Klebsiella aerogenes; assay: Antibacterial activity against Enterobacter aerogenes assessed as growth inhibition by microtitration method
[6] = system: Escherichia coli; assay: Antibacterial activity against Escherichia coli assessed as growth inhibition by microtitration method

Row | MIC [1] [µg/mL] | MIC [2] [µg/mL] | MIC [3] [µg/mL] | MIC [4] [µg/mL] | MIC [5] [µg/mL] | MIC [6] [µg/mL] | SMILES
1 | 25 | 25 | 25 | 25 | 25 | 25 | CCOC(=O)[C@@H](Cc1ccccc1)NC(=O)c1cn(CC)c2cc(C(F)(F)F)ccc2c1=O
2 | 25 | 25 | 25 | 25 | 12.5 | 25 | CCOC(=O)[C@@H](NC(=O)c1cn(CC)c2cc(C(F)(F)F)ccc2c1=O)C(C)C
3 | 50 | 6.25 | 6.25 | 25 | 6.25 | 12.5 | CCOC(=O)[C@H](Cc1ccccc1)NC(=O)c1cn(CC)c2cc(C(F)(F)F)ccc2c1=O
4 | 50 | 6.12 | 25 | 25 | 12.5 | 25 | O=C(N[C@H](Cc1ccccc1)C(=O)O)c1cnc2cc(C(F)(F)F)ccc2c1O
5 | 25 | 25 | 6.25 | 50 | 12.5 | 25 | CCOC(=O)[C@H](C)NC(=O)c1cn(CC)c2cc(C(F)(F)F)ccc2c1=O
6 | 50 | 6.12 | 12.5 | 25 | 25 | 25 | C[C@@H](NC(=O)c1cnc2cc(C(F)(F)F)ccc2c1O)C(=O)O
7 | 0.048 | 0.012 | 0.012 | 0.048 | 0.012 |  | O=C(O)c1cn(C2CC2)c2cc(N3CCNCC3)c(F)cc2c1=O [CIPROFLOXACIN]
8 | 50 | 25 | 25 | 25 | 50 | 25 | C[C@H](NC(=O)c1cnc2cc(C(F)(F)F)ccc2c1O)C(=O)O
9 | 50 | 25 | 25 | 25 | 25 | 25 | CC[C@@H](C)[C@H](NC(=O)c1cnc2cc(C(F)(F)F)ccc2c1O)C(=O)O
10 | 50 | 6.25 | 25 | 25 | 12.5 | 25 | CCOC(=O)[C@H](CC(C)C)NC(=O)c1cn(CC)c2cc(C(F)(F)F)ccc2c1=O
11 | 50 | 6.25 | 6.25 | 12.5 | 3.12 | 12.5 | CCn1cc(C(=O)N[C@H](C(=O)O)C(C)C)c(=O)c2ccc(C(F)(F)F)cc21
12 | 50 | 25 | 6.25 | 12.5 | 12.5 | 12.5 | CCn1cc(C(=O)N[C@@H](C)C(=O)O)c(=O)c2ccc(C(F)(F)F)cc21
13 | 50 | 25 | 25 | 25 | 25 | 25 | CC(C)[C@H](NC(=O)c1cnc2cc(C(F)(F)F)ccc2c1O)C(=O)O
14 | 25 | 6.12 | 25 | 25 | 12.5 | 25 | CCOC(=O)[C@@H](C)NC(=O)c1cn(CC)c2cc(C(F)(F)F)ccc2c1=O
15 | 50 | 25 | 25 | 12.5 | 25 | 25 | O=C(N[C@@H](Cc1ccccc1)C(=O)O)c1cnc2cc(C(F)(F)F)ccc2c1O
16 | 50 | 3.12 | 3.12 | 12.5 | 6.25 | 12.5 | CCn1cc(C(=O)N[C@@H](Cc2ccccc2)C(=O)O)c(=O)c2ccc(C(F)(F)F)cc21
17 | 50 | 12.5 | 25 | 25 | 25 | 12.5 | CCn1cc(C(=O)N[C@H](C)C(=O)O)c(=O)c2ccc(C(F)(F)F)cc21
18 | 25 | 6.25 | 6.25 | 25 | 12.5 | 12.5 | CCn1cc(C(=O)N[C@@H](CC(C)C)C(=O)O)c(=O)c2ccc(C(F)(F)F)cc21
19 | 25 | 6.25 | 6.25 | 25 | 12.5 | 12.5 | CC[C@@H](C)[C@H](NC(=O)c1cn(CC)c2cc(C(F)(F)F)ccc2c1=O)C(=O)O
20 | 50 | 6.25 | 25 | 25 | 12.5 | 25 | CCOC(=O)[C@@H]1CCCN1C(=O)c1cn(CC)c2cc(C(F)(F)F)ccc2c1=O
21 | 25 | 25 | 25 | 25 | 12.5 | 25 | CCn1cc(C(=O)N[C@H](Cc2ccccc2)C(=O)O)c(=O)c2ccc(C(F)(F)F)cc21
22 | 50 | 25 | 25 | 25 | 25 | 25 | CC(C)C[C@H](NC(=O)c1cnc2cc(C(F)(F)F)ccc2c1O)C(=O)O
23 | 25 | 6.25 | 6.25 | 25 | 6.25 | 12.5 | CCn1cc(C(=O)N2CCC[C@H]2C(=O)O)c(=O)c2ccc(C(F)(F)F)cc21
24 | 50 | 25 | 50 | 25 | 25 | 25 | O=C(O)[C@@H]1CCCN1C(=O)c1cnc2cc(C(F)(F)F)ccc2c1O
25 | 50 | 25 | 25 | 25 | 12.5 | 25 | CCOC(=O)[C@@H](NC(=O)c1cn(CC)c2cc(C(F)(F)F)ccc2c1=O)[C@H](C)CC
